One data set deals with Tagia sp. The following applies: chronic/long-term; growth.
The subject of the next data set is Rattus norvegicus. The following applies: for LD50: acute, mortality.
For another data set, the system named is Colinus virginianus. The following applies: reproduction developmental.
The test system of another data set is Canidae. Particulars: chronic; duration: 1 years; Dog Other.
A further data set deals with Landoltia sp. The following applies: chronic/long-term; duration: 7 days; frond number.
A further data set deals with Daphnia magna. Particulars: chronic/long-term; duration: 28 days; reproduction.
Another data set concerns Xenopus laevis. The following applies: chronic/long-term, development.
Another data set has as its system Folsomia candida. Particulars: chronic/long-term; duration: 28 days; reproduction.
Another data set relates to Oncorhynchus mykiss. Particulars: acute; duration: 96 hours; mortality.
The subject of another data set is Typhlodromus pyri. Briefly: LR50; higher = less toxic. The following applies: mortality.
Another data set has as its system Apis mellifera. The following applies: acute, mortality.
A further data set has as its system Neomysis kadiakensis. Particulars: chronic/long-term; duration: 39 days; other.
The next data set has as its system Pimephales promelas. Particulars: chronic/long-term; reproduction.
A further data set has as its system Coturnix japonica. Particulars: acute; oral; mortality.
The next data set deals with Anas platyrhynchos. The following applies: reproductive.

Where only a bound is given, the exact number is not on record here.

Turning to `S=C1SSC2=NCCN12` [5,6-Dihydro-3H-imidazo[2,1-c]-1,2,4-dithiazole-3-thione], the NOEC in the data set with Tagia sp. was 20 mg/kg. Besides, in the data set with Rattus norvegicus (oral), the LD50 came to 240 mg/kg-day.
`S=C1NCCN1` [4,5-Dihydro-2-mercaptoimidazole]: in the data set with Colinus virginianus, the NOEL was 1.8 mg/kg-day. Moreover, the NOAEL in the data set on Canidae was 0.2 mg/kg-day; with Rattus norvegicus (chronic) it was 2 mg/kg-day; in the data set with Rattus norvegicus (developmental, development), 5 mg/kg-day; in the data set on Rattus norvegicus (reproduction developmental), 0.2 mg/kg-day. Besides, the NOEC is 24 mg/kg in the data set on Tagia sp.; 960000 µg/L in the data set on Landoltia sp.; 2000 µg/L in the data set with Daphnia magna; 10000 µg/L with Xenopus laevis (duration: 28 days); 1000 µg/L in the data set with Xenopus laevis (duration: 90 days); 10.6 mg/kg in the data set with Folsomia candida.
Compound `O=C1NCCN1` [Ethylene urea] registered an LC50 with Oncorhynchus mykiss of more than 122 µg/mL. In the data set with Rattus norvegicus (oral), this compound registered an LD50 of more than 5000 mg/kg-day. The same compound had an NOAEL in the data set on Rattus norvegicus (reproduction developmental, oral, reproduction) of 37 mg/kg-day.
`S=C([S-])NCCNC(=S)[S-].S=C([S-])NCCNC(=S)[S-].[Mn+2].[Zn+2]` [Mancozeb]: the LR50 in the data set with Typhlodromus pyri (chronic/long-term, duration: 14 days) came to 107 g/ha; in the data set with Typhlodromus pyri (not reported), 26.7 g/ha. Besides, the LD50 in the data set with Apis mellifera (dermal) was 162 µg/piece; in the data set with Apis mellifera (oral, unspecified), 141 µg/piece; in the data set with Coturnix japonica it was more than 2000 mg/kg-day; with Rattus norvegicus (oral) it was more than 2000 mg/kg-day. Besides, the values for the NOEC in the data set on Neomysis kadiakensis, in the data set on Tagia sp. and in the data set on Pimephales promelas were 1.64 µg/L, 10 mg/kg and 1.35 µg/L, respectively. This compound registered an LC50 in the data set on Oncorhynchus mykiss of 0.074 µg/mL. Besides, the NOEL with Anas platyrhynchos worked out at 18.6 mg/kg-day. The NOAEL stood at 2 mg/kg-day in the data set on Rattus norvegicus (chronic) and 6.8 mg/kg-day with Rattus norvegicus (subchronic, duration: 90 days, oral, clinical chemistry).

What is called NOAEL is the highest tested level that showed no adverse finding. A word on the LC50: it is the concentration lethal to half of the exposed cells or organisms.

Source of the values: EPA's ToxValDB 9.5 (doi:10.2903/j.efsa.2020.5755).
